The IC50 is the concentration that gives 50% inhibition. A higher IC50 goes with weaker potency.

For assay [1], the system named is supercoiled pUC18 DNA. Kind of assay: DNA cleavage (nuclease activity), agarose gel electrophoresis with H2O2/ascorbic acid. As to conditions: 37 °C; for effect of sodium azide on the ability to destroy the nucleic acid molecule: complex 10 μM, ascorbic acid/H2O2, 1 h, NaN3 400 mM; for concentration at which the circular shape of DNA appears / concentration at which the linear shape of DNA appears: pUC18, cacodylate buffer 0.1 M pH 6.0, H2O2/ascorbic acid, 1 h. Type of assay: biochemical. From the text:
The activity of the complexes as chemical nucleases was studied using supercoiled pUC18 DNA in cacodylate buffer (0.1M, pH 6.0) in the presence of H2O2/ascorbic acid, with a 3.0-fold excess relative to the complex concentration. The efficiency of the complexes was compared with that of both copper sulfate and bis(o-phenanthroline) Cu^+2 complex under the same reaction conditions.
The nuclease activity of the complexes C1 and C2 was studied in the presence of certain inhibiting agents: DMSO, t-butyl alcohol, distamycin, sodium azide, 2,2,6,6-tetramethyl-4-piperidone, superoxide dismutase, and neocuproine, in an attempt to determine the ROS involved in the degradation process of the DNA molecule. We chose a concentration of 10 μM for the complexes and a concentration […] for the reducing agents ascorbic acid/H2O2. The incubation period of the samples was 1 h, at 37 °C. The resulting electropherograms are presented in Figure S8 in the Supplementary Material.
Reactions were performed by mixing 7 μL of cacodylate buffer 0.1 M, pH 6 (cacodylic acid/sodium cacodylate), 6 μL of complex solution (final concentrations: 5, 10, 15, and 20 μM), 1 μL of pUC18 DNA solution (0.25 μg/μL, 750 μM in base pairs), and 6 μL of activating agent solution (H2O2/ascorbic acid) in a 3-fold molar excess relative to the concentration of the complex. The resulting solutions were incubated for 1 h at 37 °C, after which a quench buffer solution (3 μL) consisting of bromophenol blue (0.25%), xylene cyanol (0.25%), and glycerol (30%) was added. The solution was then subjected to electrophoresis on 0.8% agarose gel in 0.5 × TBE buffer (0.045 M Tris, 0.045 M boric acid, and 1 mM EDTA) containing 5 μL/100 mL of a solution of ethidium bromide (10 mg/mL) at 100 V for 2 h. The bands were photographed on a capturing system (Gelprinter Plus TDI).
To test for the presence of reactive oxygen species (ROS) generated during strand scission and for possible complex–DNA interaction sites, various reactive oxygen intermediate scavengers and groove binders were added to the reaction mixtures. The scavengers used were 2,2,6,6-tetramethyl-4-piperidone (0.5 M), dimethylsulfoxide (DMSO) 14 M, t-butyl alcohol (10.5 M), sodium azide (NaN3) (400 mM), and superoxide dismutase (SOD) (15 units). In addition, a chelating agent of copper(I) and neocuproine (36 μM), along with the groove binder distamycin (80 μM) were also assayed. Samples were treated as described above.

The test system of assay [2] is human radical growth phase melanoma cell line (WM35). Briefly: MTT cytotoxicity assay, WM35. Type of assay: cell-based. As to conditions: for IC50: WM35 cells, MTT. Here is the method: Three cell lines were used to determine the cytotoxicity of the complexes, a human cervical carcinoma line (HeLa), a human radical growth phase melanoma cell line (WM35), and a normal fibroblastic epithelial cell line (HFL1) using the MTT method. The cells were exposed to C1 and C2 complexes in different concentrations (50, 25, 12.5, 2, and 0.2 µM) at 24, 48, and 72 h. As positive contro, cisplatin was used.
To determine the cytotoxicity of the copper complexes, three cell lines were used: a human cervical carcinoma line (HeLa), a human radical growth phase melanoma cell line (WM35), and a normal fibroblastic epithelial cell line (HFL1). The cell lines were obtained from ATCC (American Type Cell Collection, Manassas, VA 20110-2209, USA) and were maintained in DMEM (Sigma-Aldrich, Saint Louis, Missouri, USA) supplemented with 10% fetal bovine serum (Hyclone), 1 mM glutamine (Sigma-Aldrich), and 1% antibiotic antimycotic 100× (Sigma-Aldrich). The cells were cultured at 37 °C in an atmosphere of 5% CO2 and 95% relative humidity.
The cytotoxicity assays were performed using the MTT assay (3-(4,5-dimethylthiazol-2-yl)-2,5-diphenyl tetrazolium bromide-Sigma Aldrich). Cells were plated at a density of 1 × 10^5 cells/well in 96-well plates for 24 h in normal propagation media. The cultures were then exposed to C1 and C2 complexes in different concentrations (50, 25, 12.5, 2, and 0.2 µM). The complexes were first solubilized in DMSO (Sigma) and then serial dilutions in media were performed until the final concentration of DMSO was less than 1%. As a positive control, cisplatin (Ebewe Pharma Ges.m.b.H. Nfg. KG, Austria) was used, in the same concentrations as the complexes. As a negative control, cell lines cultivated in normal expansion medium with the same amount of DMSO added were used. The cellular viability was determined using the MTT assay at 24, 48, and 72 h, respectively. Formazan particles were solubilized with DMSO and absorbances were determined at 550 nm using a microplate reader (Bio-Rad, Hercules, CA, USA). The cytotoxic activity, expressed as IC50 values representing the complex solution required to inhibit 50% of the cell proliferation, were calculated from the calibration curve by nonlinear regression. Each experiment was carried out in triplicate.

For “[Cu(N-(5-(4-Methylphenyl)-[1,3,4]-Thiadiazole-2-yl) Naphtalenesulfonamidate)2(H2O)3] [C1]”, in assay [1], the “effect of sodium azide on the ability to destroy the nucleic acid molecule” value is “little effect”, the “concentration at which the circular shape of DNA appears” value stood at 15 µM and the “concentration at which the linear shape of DNA appears” value was 20 µM. This substance also had an IC50 in assay [2] (24 h) of 41.35 ± 0.19 µM. For the same substance, the IC50 in assay [2] (48 h) worked out at 23.87 ± 0.17 µM. In assay [2] (72 h), this substance returned an IC50 of 15.42 ± 0.08 µM.
Take “[Cu(N-(5-Ethyl--[1,3,4]-Thiadiazole-2-yl) Naphtalenesulfonamidate)2(py)2(H2O)] [C2]”: in assay [1], the “effect of sodium azide on the ability to destroy the nucleic acid molecule” value was “little effect”. In addition, in assay [1], the “concentration at which the circular shape of DNA appears” value worked out at 10 µM. For the same substance, the “concentration at which the linear shape of DNA appears” value in assay [1] came to 15 µM. The “IC50 value compared with cisplatin” value in assay [2] (WM35 cell lines, 24 h) was “about two times lower”. Moreover, the IC50 in assay [2] (24 h) was determined as 13 ± 0.15 µM; in assay [2] (48 h), 8.11 ± 0.13 µM; in assay [2] (72 h) it was 4.66 ± 0.07 µM.

Source of the values: PMC9144936, “New Cu^+2 Complexes with N-Sulfonamide Ligands: Potential Antitumor, Antibacterial, and Antioxidant Agents” (Molecules, 2022).
